pIC50: −log10 of the molar value.
What was measured:
fungal tyrosinase = experiment: in vitro test of inhibition of tyrosinase activity; format: biochemical; details: L-tyrosine with L-dopa co-substrate, pH 6.5, 25° C., dopachrome at 475 nm, read-out: IC 50 (content leading to 50% inhibition of the tyrosinase)
Source text: The di- and tri-caffeoylquinic acids corresponding to general formula (I) have been studied comparatively with caffeic acid in equivalent molar quantities in the in vitro inhibition test of tyrosinase activity.
In this test, visible spectrometry at 475 mn is used to monitor the quantity of dopachrome formed during the chain of reactions by which tyrosine is transformed into melanins. These reactions are catalyzed in vitro using fungal tyrosinase in the presence of a reducing co-substrate (e.g., a small quantity of L-dopa) in order to initiate the hydroxylation reaction of L-tyrosine into L-dopa, which is then catalytically oxidized into dopaquinone, and then into dopachrome which is, an intermediate product, prior to the non-enzymatic oxidation reactions leading to melanin formation.
Accordingly, the concentration of dopachrome formed over time is measured in the presence and absence of the inhibitor.
The inhibition effect is expressed by the lowering of the maximum quantity of dopachrome formed (value of the optical density at 475 nm read on the flat part of the curve) in relation to the quantity obtained in the absence of the inhibitor.
For each compound, the content in micromoles per liter leading to 50% inhibition of the tyrosinase (IC 50) is measured.
A--Phosphate buffer 0.1M pH=6.5 (composition for 200 ml of buffer: 68.5 ml of NaH2 PO4 0.2M+31.5 ml of Na2 HPO4 0.2M+100 ml of water)
B--Mother solution of L-tyrosine at 2×10^-3 M in A
C--Mother solution of L-dopa at 10^-4 M in A
D--Mother solution of fungal tyrosinase at 2,400 units/ml in A
E--Mother solution of the inhibitor at 10^-2 M in ethanol (solutions C and D must be prepared the same day).
homogenize and establish equilibrium at 25° C.
add 0.05 ml of D to the test trough
mix rapidly and observe the kinetics by measuring absorption at 475 nm as a function of time.

[1] = background statement; cited from earlier work
melanocytes = details: background statement; cited from earlier work

| Compound | pIC50 (fungal tyrosinase) | irritation [1] | cytotoxicity for melanocytes (melanocytes) |
| --- | --- | --- | --- |
| O=C(C=Cc1ccc(O)c(O)c1)OC1CC(OC(=O)C=Cc2ccc(O)c(O)c2)(C(=O)O)CC(O)C1O (centres unmarked) [1,3-di-caffeoylquinic acid] | 4.33 | – | – |
| O=C(C=Cc1ccc(O)c(O)c1)OC1CC(O)(C(=O)O)CC(OC(=O)C=Cc2ccc(O)c(O)c2)C1OC(=O)C=Cc1ccc(O)c(O)c1 (centres unmarked) [3,4,5-tri-caffeoylquinic acid] | 4.54 | – | – |
| O=C(O)/C=C/c1ccc(O)c(O)c1 [Caffeic acid, reference compound] | 3.28 | – | – |
| Oc1ccc(O)cc1 [hydroquinone] | – | especially irritating | cytotoxic for melanocytes |

Second part, led by results:

| pIC50 (fungal tyrosinase) | Compound | irritation [1] | cytotoxicity for melanocytes (melanocytes) |
| --- | --- | --- | --- |
| 4.07 | O=C(C=Cc1ccc(O)c(O)c1)OC1CC(O)(C(=O)O)CC(O)C1OC(=O)C=Cc1ccc(O)c(O)c1 (centres unmarked) [3,4-di-caffeoylquinic acid] | – | – |
| 4.28 | O=C(C=Cc1ccc(O)c(O)c1)OC1CC(O)(C(=O)O)CC(OC(=O)C=Cc2ccc(O)c(O)c2)C1O (centres unmarked) [3,5-di-caffeoylquinic acid] | – | – |
| 4.35 | O=C(C=Cc1ccc(O)c(O)c1)OC1CC(O)(C(=O)O)CC(O)C1OC(=O)C=Cc1ccc(O)c(O)c1 (centres unmarked) [4,5-di-caffeoylquinic acid] | – | – |
